Legend:
Format in all cases: in vivo, human
[1] = tested on: subjects with HD; assay: Phase 3 study: Clinical Global Impression of Change (CGI-C) response status
Description: As used herein, “Clinical Global Impression of Change” or CGI-C refers to a rating instrument based on a 7-point scale (range: 1=very much improved to 7-very much worse) that can be used to rate the overall global improvement of chorea since the initiation of study drug dosing. This scale is a modification of a scale developed by the Psychopharmacology Research Branch of the National Institute of Mental Health to rate the subject's overall improvement in clinical disorder and provides a global evaluation of improvement over time from the clinician's perspective.
In certain embodiments, the method is effective to result in an improvement in Clinical Global Impression of Change (CGI-C) response status, wherein subjects whose score is either a 1 (“very much improved”) or a 2 (“much improved”) in CGI-C were classified as responders. In certain embodiments, at least about 9% of subjects were classified as responders. In certain embodiments, at least about 10%, such as at least about 15%, at least about 20%, at least about 25%, or at least about 30% of subjects were classified as responders. In certain embodiments, at least about 25%, or at least about 30% of subjects were classified as responders after 12 weeks of treatment.
A Phase 3, randomized, double-blind, placebo-controlled study to evaluate the efficacy, safety, and tolerability of once-daily valbenazine in subjects with HD was conducted. The study included a 4-week screening period, an 8-week dose-adjustment period, a 4-week maintenance period, and a final study visit 2 weeks following the final dose of study drug.
Secondary endpoints included: • Clinical Global Impression of Change (CGI-C) response status ([…] of “very much improved” or “much improved”) at Week 12; • Patient Global Impression of Change (PGI-C) response status ([…] of “very much improved” or “much improved”) at Week 12; • Change from baseline to Week 12 in the Quality of Life in Neurological Disorders Upper Extremity Function; and • Change from baseline to Week 12 in the Neuro-QoL Lower Extremity Function.
(§1) Exploratory endpoints included: • Wearable movement sensors (in select sites; optional participation) using MC10 Inc., BIOSTAMP® NPOINT® system • Huntington Disease Health Index • Changes from the screening period baseline to each postbaseline study visit (Weeks 2 through 12) in the TMC based on site assessments • Changes from the screening period baseline to maintenance (the average of the Week 10 and Week 12 assessments) in the TMC based on video recording central rater assessments • CGI-C response at Weeks 2 through 10 • PGI-C response at Weeks 2 through 10 • The change from baseline to Weeks 4, 8, and 10 in the Neuro-QoL Upper Extremity Function T-score. • The change from baseline to Weeks 4, 8, and 10 in the Neuro-QoL Lower Extremity Function T-score • CGI-S at Weeks 2 through 12 • PGI-S at Weeks 2 through 12 • SF-36 at Week 12 • HD-HI at Week 10 and Week 12 • EQ-5D-5L at Week 10 and Week 12 • UHDRS scores for motor, behavior, and functional capacity assessment at Weeks 2 through 12 • Other UHDRS scores including functional assessment and independence scale at Week 12 • AS at Week 12 • Change from screening period in physical activity by movement sensors at the Week 10 visit period

[2] = tested on: subjects with HD; assay: Phase 3 study: Patient Global Impression of Severity (PGI-S)
Description: as §1
Subjects rated the severity of their chorea at scheduled visits on a 5-point scale. The PGI-S was analyzed using the same methods as the CGI-S.

[3] = tested on: subjects with HD; assay: Phase 3 study: Huntington Disease Health Index (HD-HI); details: for HD-HI hand and arm function subscale, change from baseline / HD-HI involuntary movements subscale, change from baseline / HD-HI mobility subscale, change from baseline: valbenazine group
Description: as §1
The HD-HI includes 13 subscales that measure 13 individual areas of health in patients with HD. Observed values and change from baseline were summarized descriptively for each subscale and the total instrument score by treatment group and visit.

[4] = tested on: subjects with HD; assay: Phase 3 study: UHDRS total motor score (TMS); details: MMRM model; valbenazine vs placebo
Description: As used herein, “Unified Huntington Disease Rating Scale” or “UHDRS” is the standard clinical assessment tool in Huntington disease. The UHDRS is divided into four domains: motor performance, cognitive function, behavioral abnormalities, and functional abilities. The motor section consists of 31 items assessing oculomotor, bradykinesia/rigidity, dystonia, chorea, and gait/balance. The items are rated from zero to four, with zero indicating normal findings and four indicating severe abnormalities. The range of the Total Motor Score (TMS) is 0 to 124, with higher scores indicating more severe motor impairment. The cognitive component includes the verbal fluency test, the symbol digit modalities test, and the Stroop test (color naming, word reading, and interference). Lower scores indicate worse cognitive performance. The behavioral assessment measures the frequency and severity of 11 items, which are rated from zero (almost never/absent) to four (almost always/severe). The items assess depression, anxiety, aggression, psychosis, and other behavioral abnormalities. The behavioral score ranges from 0 to 88, with higher scores indicating more severe psychiatric abnormalities. The functional domain comprises three components, namely the total functional capacity (TFC), the functional assessment scale (FAS), and the independence scale (IS). […]

[5] = tested on: subjects with HD; assay: Phase 3 study: Anosognosia Scale; details: baseline to Week 12; either treatment group
Description: as §1

COc1cc2c(cc1OC)[C@H]1C[C@@H](OC(=O)[C@@H](N)C(C)C)[C@H](CC(C)C)CN1CC2 [Valbenazine, (S)-2-amino-3-methyl-butyric acid (2R,3R,11bR)-3-isobutyl-9,10-dimethoxy-1,3,4,6,7,11b-hexahydro-2H-pyrido[2,1-a]isoquinolin-2-yl ester]
CGI-C response rate difference between treatment groups (valbenazine minus placebo) ([1]; Week 2): follows: Week 2 (7.71% [95% CI: −0.93, 17.87], nominal p = 0.1157),
CGI-C response rate difference between treatment groups (valbenazine minus placebo) ([1]; Week 4): Week 4 (20.42% [95% CI: 7.53, 33.00], nominal p = 0.0012), Week 6
CGI-C response rate difference between treatment groups (valbenazine minus placebo) ([1]; Week 6): (20.14% [95% CI: 4.04, 35.89], nominal p = 0.0151), Week 8
CGI-C response rate difference between treatment groups (valbenazine minus placebo) ([1]; Week 8): (34.50% [95% CI: 16.46, 49.76], nominal p = 0.0001), and Week 10
CGI-C response rate difference between treatment groups (valbenazine minus placebo) ([1]; Week 10): (24.80% [95% CI: 6.55, 41.18], nominal p = 0.0065).
CGI-C @ week 12, % responders ([1]; Week 12, valbenazine group): 42.9%
CGI-C @ week 12, % responders, Difference ([1]; Week 12, valbenazine vs placebo): 29.7%
PGI-S: proportion of valbenazine-treated subjects who had no chorea symptoms ([2]; Week 12): chorea symptoms increased to about 27% from about 9% at baseline,
PGI-S: proportion of valbenazine-treated subjects with moderate symptoms ([2]; Week 12): ~29%
PGI-S: severe or very severe symptoms ([2]; Week 12): No valbenazine-treated subject had severe
PGI-S: proportion of valbenazine-treated subjects with mild symptoms ([2]; Week 12 (remained consistent from baseline)): 45%), and the proportion with moderate symptoms decreased from
HD-HI hand and arm function subscale, change from baseline ([3]; Week 10): −7.154
HD-HI involuntary movements subscale, change from baseline ([3]; Week 10): −12.220
HD-HI mobility subscale, change from baseline ([3]; Week 10): placebo for mobility (Week 10: −6.319 valbenazine vs −4.131
HD-HI involuntary movements subscale, LS mean difference between treatment groups ([3]; Week 12, ANCOVA model): LS mean difference between treatment groups of −6.662 (95%
HD-HI hand and arm function subscale, change from baseline ([3]; Week 12): −7.169
HD-HI involuntary movements subscale, change from baseline ([3]; Week 12): −11.195
HD-HI mobility subscale, change from baseline ([3]; Week 12): placebo; Week 12: −4.208 vs −2.708), involuntary movements (Week
HD-HI total score, changes from baseline ([3]; Weeks 10 and 12): valbenazine group. No meaningful changes in the HD-HI total score
TMS score LS mean difference, change from screening period baseline to maintenance [4]: groups: LS mean difference −3.99 (95% CI: −6.27, −1.70); p = 0.0008
Anosognosia Scale score, changes from baseline [5]: No clinically meaningful changes were noted from baseline to Week

Reference: US20260248771A1, “VALBENAZINE, A VMAT2 INHIBITOR, AS A FREE BASE A TOSYLATE OR DITOSYLATE SALT, FOR USE IN THE TREATMENT OF CHOREA ASSOCIATED WITH HUNTINGTON'S DISEASE” (Neurocrine Biosciences, Inc., priority 2022, published 2026)
